How the values were obtained:
progesterone receptor = target: T1, progesterone receptor (Homo sapiens, UniProt P06401); experiment: Effects of progestins and antiprogestins on alkaline phosphatase activity in T47D cells; type: cell-based; settings: antagonist mode in the presence of 1 nM progesterone, 24 h, read-out: T47D Alkaline Phosphatase Activity IC50 (nM) or % inhibition
T1 construct: determining a compound's effect on alkaline phosphatase activity in T47D cells; endogenous in cells; host or cells: T47D cells
T1 sequence (P06401 1-933): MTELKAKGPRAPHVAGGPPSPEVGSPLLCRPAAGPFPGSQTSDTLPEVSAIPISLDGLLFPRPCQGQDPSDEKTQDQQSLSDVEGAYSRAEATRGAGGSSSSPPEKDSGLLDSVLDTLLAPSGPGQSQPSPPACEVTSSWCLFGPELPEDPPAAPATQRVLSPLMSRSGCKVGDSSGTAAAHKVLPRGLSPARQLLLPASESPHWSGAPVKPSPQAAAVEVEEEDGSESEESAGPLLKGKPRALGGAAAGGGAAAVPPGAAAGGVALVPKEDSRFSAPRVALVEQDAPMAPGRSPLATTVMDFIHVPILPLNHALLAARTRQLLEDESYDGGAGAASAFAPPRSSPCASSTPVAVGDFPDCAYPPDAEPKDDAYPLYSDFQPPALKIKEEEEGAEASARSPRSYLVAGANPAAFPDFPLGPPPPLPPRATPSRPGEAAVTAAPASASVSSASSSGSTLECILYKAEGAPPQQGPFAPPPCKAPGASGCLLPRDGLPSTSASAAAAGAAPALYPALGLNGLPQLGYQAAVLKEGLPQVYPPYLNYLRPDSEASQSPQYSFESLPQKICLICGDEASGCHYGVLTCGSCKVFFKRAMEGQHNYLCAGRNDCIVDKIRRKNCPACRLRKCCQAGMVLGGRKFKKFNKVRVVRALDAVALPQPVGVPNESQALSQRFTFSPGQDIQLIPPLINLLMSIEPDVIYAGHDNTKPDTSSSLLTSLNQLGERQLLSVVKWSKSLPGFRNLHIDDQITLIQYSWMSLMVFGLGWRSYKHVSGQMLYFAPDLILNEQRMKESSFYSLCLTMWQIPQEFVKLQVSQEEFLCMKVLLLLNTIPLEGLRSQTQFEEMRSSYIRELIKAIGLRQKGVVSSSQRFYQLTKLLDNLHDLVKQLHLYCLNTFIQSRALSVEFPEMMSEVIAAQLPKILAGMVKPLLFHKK
Experimental: (1) Effects of Progestins and Antiprogestins on Alkaline Phosphatase Activity in T47D Cells
PURPOSE: To identify progestins or antiprogestins by determining a compound's effect on alkaline phosphatase activity in T47D cells.
Culture Medium: • DMEM:F12 (1:1) (GIBCO, BRL) supplemented with 5% (v/v) charcoal stripped fetal bovine serum (not heat-inactivated), 100 U/mL penicillin, 100 μg/mL streptomycin, and 2 mM the GlutaMax™ reagent (GEBCO, BRL).
Alkaline phosphatase assay buffer: • I. 0.1M Tris-HCl, pH 9.8, containing 0.2% the Triton® X-100 reagent • II. 0.1M Tris-HCl, pH 9.8, containing 4 mM p-nitrophenyl phosphate (Sigma). B. Cell Culture and Treatment:
Frozen T47D cells were thawed in a 37° C. water bath and diluted to 280,000 cells/mL in culture medium. To each well in a 96-well plate (Falcon, Becton Dickinson Labware), 180 μL of diluted cell suspension was added.
Twenty μL of reference or test compounds diluted in the culture medium was then added to each well. […]
For reference and test compounds, a dose response curve was generated for dose (X-axis) vs. the rate of enzyme reaction (slope) (Y-axis). […] EC50 or IC50 values were calculated from the retransformed values. […]
Progesterone and trimegestone were reference progestins and RU486 was the reference antiprogestin. All reference compounds were run in full dose response curves and the EC50 and IC50 values were calculated.

| IC50 (progesterone receptor) | melting point | SMILES |
| --- | --- | --- |
| 1370 nM | 169 to 171 °C | CC1(C)COC(=O)N(c2nc(-c3ccc(Br)cc3)cs2)C1 [Example 4, 3-[4-(4-Bromophenyl)-1,3-thiazol-2-yl]-5,5-dimethyl-1,3-oxazinan-2-one] |
|  | 114 to 116 °C | CCC[C@@H]1COC(=O)N1c1nc(-c2ccc(Br)cc2)cs1 [Example 2, (4R)-3-[4-(4-Bromophenyl)-1,3-thiazol-2-yl]-4-propyl-1,3-oxazolidin-2-one] |
|  | 197 to 199 °C | C[C@@H]1COC(=O)N1c1nc(-c2ccc(Br)cc2)cs1 [Example 1, (4R)-3-[4-(4-Bromophenyl)-1,3-thiazol-2-yl]-4-methyl-1,3-oxazolidin-2-one] |
| 238 nM | 225 to 227 °C | O=C1OCCCN1c1nc(-c2ccc(Br)cc2)cs1 [Example 3, 3-[4-(4-Bromophenyl)-1,3-thiazol-2-yl]-1,3-oxazinan-2-one] |

— US7538107B2, “Oxazinan-2-one derivatives useful as PR modulators” (Wyeth, priority 2006, dated 2009)
